Laboratory results published in US20240050524A1, “DELIVERY OF ABETA VARIANTS FOR AGGREGATION INHIBITION” (Baylor College of Medicine, priority 2020, published 2024).
“Also recorded” adds a separate entry of the source.

System: γ-secretase
Test: Dependence of Aβ release from transfected N2a cells on γ-secretase activity (IP/immunoblot of conditioned media)
Format: cell-based, murine
Conditions: 'KK' minimal construct; 0.1 or 1 nM
Method: Collection of Aβ peptides from N2a conditioned media. N2a cells were grown in 6 well plates using Dulbecco's modified Eagle's medium (DMEM) (#12-604F, VWR) supplemented with […] penicillin/streptomycin and 10% fetal bovine serum until approximately 90% confluent. […] Twenty-four hours later, cells were washed with 1×Dulbecco's PBS, and a serum-reduced medium consisting of DMEM and 0.2% fetal bovine serum was added before the cells were returned to 5% CO2 at 37° C. Conditioned media was harvested 24 hr later and centrifuged at 10,000 rpm for 5 min at 4° C. (2 ml/well×3 wells per IP reaction). To test the dependence of Aβ release on γ-secretase activity, cells were transfected as above, with the subsequent media replacement including 0.1 or 1 nM of LY411575 (#SML0506, Sigma). Supernatants were collected and supplemented with protease inhibitors (#5892970001, Sigma) and 0.01% NaN3 (#S2002, Sigma) to prevent proteolytic degradation.
Aβ IP from conditioned media for immunoblot. Protein G Dynabeads (50 μl, #10003D, Fisher) were loaded with mouse anti-Aβ antibody 6E10 (1 ug, #SIG-39320, BioLegend, San Diego, CA) for 1 hr at RT. […] Antibody binding was detected using […] secondary antibody conjugated with IRDye, diluted 1:20,000 in block (#26-32210, LI-COR, Lincoln, NE). Blots were imaged with an Odyssey Fc Imager and analyzed with Image Studio software (LI-COR).

C[C@H](NC(=O)[C@@H](O)c1cc(F)cc(F)c1)C(=O)N[C@@H]1C(=O)N(C)c2ccccc2-c2ccccc21 [LY411575]
block of Aβ secretion into the media: blocked release of variant Aβ into the media in a concentration-dependent manner; also recorded: blocked in a dose-dependent manner
